From US5401733A, “Stable and active metabolites of 1,25-dihydroxy-16-ene-cholecalciferol” (Hoffmann-La Roche Inc., priority 1993, dated 1995)
“Also recorded” adds a separate entry of the source. Like-named read-outs stand apart in the source and are kept apart here.

Legend:
HL-60 cells = experiment: Differentiation of HL-60 cells (NBT reduction), 4 days; type: cell-based, human; conditions: for Percentage of NBT positive cells, Exp. 1 / Percentage of NBT positive cells, Exp. 2 / Percentage of NBT positive cells, Average / EC50: 4 days; for Percentage of NBT positive cells, Average: average of Exp. 1 and 2; for EC50: Homo sapiens, HL-60, 96 h, NBT reduction, read-out: ED50 (concentration of compound which induced differentiation of 50% of the cells)
Protocol: Effect of 1,25(OH)2 -16-ene-24-oxo-D3 on the Morphological Differentiation of HL-60 Cells
Tissue culture medium used was RPMI-1640 (Gibco) supplemented with glutamine, antibiotics and 20% fetal bovine serum.
1,25(OH)2 -16-ene-D3 and 1,25(OH)2 -16-ene-24-oxo-D3 were dissolved in sufficient ethanol to yield stock solutions of 1 mM. Reduced lighting was used when working with the compounds and the stock solutions were stored in the dark at -20 C. in an argon atmosphere. The stock solutions were added to flasks, which were supplemented with sufficient ethanol to achieve the final concentration of 0.1%.
A HL-60 tumor cell line was originally derived from a patient with promyelocytic leukemia and was obtained from the American Type Culture Collection (ATCC #CCL240). The cells were maintained in liquid cultures by serial passage twice weekly in the tissue culture medium. For each experimental point, cells were grown in replicate flasks. The cells were seeded at a rate of 10^6 cells per 25 cm^2 flask and grown in the presence of the compounds for a total of 4 days. Ethanol, used as the vehicle, was kept constant in all dilutions in each experiment and had no effect on the cell differentiation at the concentrations used […]. After 4 days of incubation at 37° C., cultures were evaluated for cell differentiation.
Quantitation of differentiated cells was done by the biochemical method of nitroblue tetrazolium reduction (NBT) reduction. A 1 ml aliquot of cell suspension was removed from each flask and centrifuged for 10 minutes, and resuspended in about 200 μl of a work solution. The work solution contained 100 ng of tetradecanoyl phorbol acetate per ml of NBT and was kept in a covered vial on ice. The NBT was prepared fresh on the day of enumeration to 1 mg/ml in growth medium. The cells were incubated in a 37° C. water bath for 30 minutes. An aliquot was placed into a hemocytometer and the total number of blue-black cells per approximately 200 cells was determined. The percentage of differentiated cells was then calculated.
The results are also shown as the concentration of compound which induced differentiation of 50% of the cells (ED50).

human keratinocytes [1] = experiment: Keratinocyte proliferation, assay 2 (KGM without calcium supplementation, 7 days); type: cell-based; conditions: for proliferation of human keratinocytes / skin cells (in words): assays 1 and 2 not distinguished; for inhibition at 0.03 µM / inhibition at 0.1 µM / inhibition at 0.3 µM / inhibition at 1 µM: Homo sapiens, Keratinocyte, Exp. 1, read-out: Percentage Inhibition of Controls, Exp. 1; for inhibition at 0.03 µM: assay 2, 0.03 μM; for inhibition at 0.1 µM: assay 2, 0.1 μM; for inhibition at 0.3 µM: assay 2, 0.3 μM; for inhibition at 1 µM: assay 2, 1.0 μM; for antiproliferative activity, assay 2 (in words): assay 2, lower doses; for dose response (in words): low calcium and more rapidly dividing cells
Protocol: (§1) Quantitation of Morphological Changes During Keratinocyte Proliferation Materials and Methods
(§2) Human neonatal foreskins were collected by circumcision and placed into tubes containing Dulbecco's Modified Eagle's Medium (DMEM) with 10% serum. On arrival at the laboratory, they were mechanically trimmed of excess dermis, and treated with a solution of trypsin/EDTA (0.05%/0.02%) at 4° C. overnight. The epidermis was stripped from the dermis, agitated in buffered saline containing soybean trypsin inhibitor to remove basal keratinocytes and the stratum cornea layer was removed. The separated cells were centrifuged, resuspended in the above media, counted, and the cells plated onto plastic culture dishes or plates at a density of 25,000 cells/cm^2 in keratinocyte growth media (KGM®-modified MCDB 153, Clonetics, Inc., Catalog #CC3001) according to protocols developed by Boyce and Ham (In Vitro Models for Cancer Research III, 246-274, 1986) for MCDB 153 media. The cultures were incubated in humidified chambers with 5% CO2 at 37° C. The cultures were refed with fresh media two to three times per week. Prior to reaching confluency the cells were replated (passage one) at 25,000 cells/well on 6-well cluster plates (Costar catalog #3506) in KGM.
(§3) 1 milligram quantities were received in amber glass vials, and stored at -20° C. Sufficient 100% ethanol was added directly to the vials to obtain a millimolar solution that was subsequently aliquoted into small amber vials, overlayed with argon gas and stored at […] Each stock solution was thawed once, used and discarded. Aliquots from the stock solutions were diluted directly into medium and then serially diluted from micromolar to 10^-12 M concentrations. Dilutions from 10^-8 M to 10^-12 M had ethanol added for a final concentration of 0.1%. Stock solutions were used within one month. Control cultures were treated with 0.1% ethanol.
(§4) Approximately 24 hours after passage one, the cells were refed with fresh KGM supplemented to 1.5 mM CaCl2 (assay 1) containing the test compound. In a second assay (assay 2), the cells were grown in KGM without calcium supplementation to stimulate more proliferation and grown for 7 days instead of 5 days. Compounds were typically tested at 4 concentrations in triplicate wells. At the termination of the experiment, prior to the cultures reaching confluency, the cells were enumerated as follows. Dishes were rinsed with phosphate buffered saline, and then incubated with trysin/EDTA solution for 15 minutes. Cells were suspended, an aliquot placed into isotonic buffered saline and counted on an electronic particle counter (Coulter Counter). The counter was periodically calibrated for the correct size of keratinocytes. Each well was counted in triplicate. The number of cells per dish were calculated according to dilution factors used and results shown below in Table 3 are presented as percent inhibition obtained in control cultures.

hydroxylase enzymes = experiment: Metabolism in perfused rat kidneys; type: in vitro ADME; conditions: for resistance to further hydroxylation (in words): rat kidney perfusion
Protocol: The compounds of formulas I and II were prepared by perfusing 1,25(OH)2 -16-ene-D3 in rat kidneys, extracting the perfusate and isolating the compounds of formulas I and II.
Crystalline 1,25(OH)2 -16-ene-D3 was synthesized as described in U.S. Pat. No. 5,087,619, which is herein incorporated by reference to the extent necessary to enable one of skill in the art to make this invention. Rat kidneys were perfused with the 1,25(OH)2 -16-ene-D3 as described in Am. J. Physiol. 1982, 243 E265-271 and in Biochemistry 1987, 26, 324-331. Cold 1,25(OH)2 -16-ene-D3 (400 nmoles) was introduced into 100 mL of perfusate and the kidney perfusion was continued for 8 hours. Lipid extraction of the final kidney perfusate was performed according to the procedure described in Can. J. Biochem. Physiol. 1959, 37, 911-917. Half of the bulk lipid extract from the final perfusate of about 100 mL was then subjected directly to high pressure liquid chromatography (HPLC) performed with a Waters Model 600 equipped with a Model 990 photo diode array detector (Waters Associates, Milford, MA). HPLC analysis was performed on the lipid extract obtained from 50 mL of perfusate under the following conditions: Zorbax-SIL column (25 cm×4.6 mm); Hexane: 2-propanol (90:10), Flow rate: 2 mL/minutes. A known amount of 25(S),26(OH)2 -D3 was added to the perfusate at the time of lipid extraction to assess extraction of vitamin D metabolites in general. Fractions of each individual metabolite from the first HPLC run was pooled and subjected to a second HPLC run using the same Zorbax-SIL column eluted with methylene chloride:2-propanol […]. Each metablite obtained from the second HPLC run was chromatographed twice using the first HPLC system. At this time, the purity of each metabolite was adequate for its structure identification process. A control perfusion was performed with cold 1,25(OH)2 -D3 in a similar fashion and the lipid extract of the final perfusate was analyzed using the same HPLC systems as above.

human keratinocytes [2] = experiment: Keratinocyte proliferation, assay 1 (KGM supplemented to 1.5 mM CaCl2, 5 days); type: cell-based; conditions: for inhibition at 0.03 µM / inhibition at 0.1 µM / inhibition at 0.3 µM / inhibition at 1 µM: Homo sapiens, Keratinocyte; for inhibition at 0.03 µM: assay 1, 0.03 μM; for inhibition at 0.1 µM: assay 1, 0.1 μM; for inhibition at 0.3 µM: assay 1, 0.3 μM; for inhibition at 1 µM: assay 1, 1.0 μM; for antiproliferative activity, assay 1 (in words): assay 1, lower doses
Protocol: as §1, §2, §3, §4

[3] = Exp. 2, read-out: Percentage Inhibition of Controls, Exp. 2
[4] = average of Exp. 1 and 2, read-out: Percentage Inhibition of Controls, Average

EC50 (HL-60 cells) [µM]	Structure (SMILES)	differentiation of HL-60 / human promyelocytic cells (in words) (HL-60 cells)	proliferation of human keratinocytes / skin cells (in words) (human keratinocytes [1])	resistance to further hydroxylation (in words) (hydroxylase enzymes)	Percentage of NBT positive cells, Exp. 1 (HL-60 cells; 0.001 μM) [%]	Percentage of NBT positive cells, Exp. 2 (HL-60 cells; 0.001 μM) [%]	Percentage of NBT positive cells, Average (HL-60 cells; 0.001 μM) [%]	Percentage of NBT positive cells, Exp. 1 (HL-60 cells; 0.01 μM) [%]	Percentage of NBT positive cells, Exp. 2 (HL-60 cells; 0.01 μM) [%]	Percentage of NBT positive cells, Average (HL-60 cells; 0.01 μM) [%]	Percentage of NBT positive cells, Exp. 1 (HL-60 cells; 0.1 μM) [%]	Percentage of NBT positive cells, Exp. 2 (HL-60 cells; 0.1 μM) [%]	Percentage of NBT positive cells, Average (HL-60 cells; 0.1 μM) [%]	Percentage of NBT positive cells, Exp. 1 (HL-60 cells; 1.0 μM) [%]	Percentage of NBT positive cells, Exp. 2 (HL-60 cells; 1.0 μM) [%]	Percentage of NBT positive cells, Average (HL-60 cells; 1.0 μM) [%]	inhibition at 0.03 µM (human keratinocytes [2]; [3]) [%]	inhibition at 0.03 µM (human keratinocytes [2]; [4]) [%]	inhibition at 0.1 µM (human keratinocytes [2]; [3]) [%]	inhibition at 0.1 µM (human keratinocytes [2]; [4]) [%]	other results
–	C=C1/C(=C\C=C2/CCC[C@]3(C)C([C@H](C)CCC(O)C(C)(C)O)=CC[C@@H]23)C[C@@H](O)C[C@@H]1O (stereo partly drawn) [1,24,25(OH)3-16-ene-D3, 1,24,25-trihydroxy-16-ene-cholecalciferol]	stimulate differentiation of HL-60 cells	decrease proliferation of human keratinocytes	resisted further hydroxylation from other hydroxylase enzymes	–	–	–	–	–	–	–	–	–	–	–	–	–	–	–	–	–
0.035	C=C1/C(=C\C=C2/CCC[C@]3(C)C([C@H](C)CCC(=O)C(C)(C)O)=CC[C@@H]23)C[C@@H](O)C[C@@H]1O [1,25(OH)2-16-ene-24-oxo-D3, 1,25-dihydroxy-16-ene-24-oxo-cholecalciferol]	induced differentiation of human promyelocytic cells; also recorded: stimulates differentiation of HL-60 cells	restrained the proliferation of skin cells	resisted further hydroxylation from other hydroxylase enzymes	8.0	24.5	16.25	47.0	35.5	41.25	55.0	60.0	57.5	69.0	70.0	69.5	82.8	80.1	108	89.1	differentiation of HL-60 / human promyelocytic cells (in words) (HL-60 cells; listed as I): stimulate differentiation of HL-60 cells; potency relative to the parent compound (in words) (HL-60 cells; versus 1,25(OH)2 -16-ene-D3): greater than that of the parent compound; inhibition at 0.3 µM (human keratinocytes [2]; [3]): 73.3%; inhibition at 0.3 µM (human keratinocytes [2]; [4]): 67.8%; inhibition at 1 µM (human keratinocytes [2]; [3]): 73.1%; inhibition at 1 µM (human keratinocytes [2]; [4]): 68.1%; antiproliferative activity, assay 1 (in words) (human keratinocytes [2]): some antiproliferative activity at lower doses, although this activity is not dose dependent; inhibition at 0.03 µM (human keratinocytes [1]): 63 ± 7.21%; inhibition at 0.1 µM (human keratinocytes [1]): 45.3 ± 9.48%; inhibition at 0.3 µM (human keratinocytes [1]): 31.1 ± 11.8%; inhibition at 1 µM (human keratinocytes [1]): 17.4 ± 8.13%; antiproliferative activity, assay 2 (in words) (human keratinocytes [1]): strong antiproliferative activity at lower doses; proliferation of human keratinocytes / skin cells (in words) (human keratinocytes [1]; listed as I): decrease proliferation of human keratinocytes; dose response (in words) (human keratinocytes [1]): good dose response curve
0.08	C=C1/C(=C\C=C2/CCC[C@]3(C)C([C@H](C)CCCC(C)(C)O)=CC[C@@H]23)C[C@@H](O)C[C@@H]1O [1,25(OH)2-16-ene-D3, 1,25-dihydroxy-16-ene-cholecalciferol]	–	–	–	12.0	18.5	15.25	30.5	47.5	39.0	48.0	61.0	54.5	62.5	60.5	61.5	88.4	89.8	83.6	82.3	inhibition at 0.3 µM (human keratinocytes [2]; [3]): 89%; inhibition at 0.3 µM (human keratinocytes [2]; [4]): 84.5%; inhibition at 1 µM (human keratinocytes [2]; [3]): 57.1%; inhibition at 1 µM (human keratinocytes [2]; [4]): 58.5%; antiproliferative activity, assay 1 (in words) (human keratinocytes [2]): some antiproliferative activity at lower doses, although this activity is not dose dependent; inhibition at 0.03 µM (human keratinocytes [1]): 75.6 ± 3.35%; inhibition at 0.1 µM (human keratinocytes [1]): 56.2 ± 5.7%; inhibition at 0.3 µM (human keratinocytes [1]): 36 ± 10.3%; inhibition at 1 µM (human keratinocytes [1]): 22.4 ± 8.55%; antiproliferative activity, assay 2 (in words) (human keratinocytes [1]): strong antiproliferative activity at lower doses; dose response (in words) (human keratinocytes [1]): good dose response curve; metabolism (in words) (hydroxylase enzymes; 400 nmoles in 100 mL perfusate, 8 hours): metabolized mainly into two metabolites
